Measured values published in PubChem BioAssay (NCI).
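Protocol summary: plate cells (96-well), add compound at 5 concentrations, incubate 48 h, interpolate endpoints linearly. Here, GI50 denotes the concentration required for 50% inhibition of growth. The concentration for full growth arrest is given as TGI.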

Tests used:
Assay in all cases: NCI anticancer screen, dose series, 48 h
HOP-92 NSCLC = tested on: HOP-92 NSCLC
TK-10 renal = tested on: TK-10 renal
MOLT-4 leukemia = tested on: MOLT-4 leukemia
CAKI-1 renal = tested on: CAKI-1 renal
A498 renal = tested on: A498 renal
K-562 leukemia = tested on: K-562 leukemia
CCRF-CEM leukemia = tested on: CCRF-CEM leukemia
RXF 393 renal = tested on: RXF 393 renal
SF-539 CNS = tested on: SF-539 CNS
OVCAR-5 ovarian = tested on: OVCAR-5 ovarian

SMILES | TGI (HOP-92 NSCLC) | TGI (TK-10 renal) | TGI (MOLT-4 leukemia) | TGI (CAKI-1 renal) | TGI (A498 renal) | TGI (K-562 leukemia) | TGI (CCRF-CEM leukemia) | TGI (RXF 393 renal) | TGI (SF-539 CNS) | TGI (OVCAR-5 ovarian) | GI50 (HOP-92 NSCLC) | GI50 (TK-10 renal) | GI50 (MOLT-4 leukemia) | GI50 (CAKI-1 renal) | GI50 (A498 renal) | GI50 (K-562 leukemia) | GI50 (CCRF-CEM leukemia) | GI50 (RXF 393 renal) | GI50 (SF-539 CNS) | GI50 (OVCAR-5 ovarian)
COC(c1ccsc1)C(C#N)(C#N)N=Cc1ccsc1 (configuration not stated) | 27.1 µM | 36.2 µM | 43.3 µM | 19.2 µM | 29.1 µM | 49.3 µM | 39 µM | 27 µM | 30.4 µM | 46.6 µM | – | – | – | – | – | – | – | – | – | –
CN(C)N=Nc1ccc([N+](=O)[O-])cc1C(N)=O | > 100 µM | – | > 100 µM | > 100 µM | > 100 µM | > 100 µM | > 100 µM | > 100 µM | > 100 µM | > 100 µM | – | – | – | – | – | – | – | – | – | –
CCN1CCN(C(=O)[C@]23CC[C@@H](C)[C@H](C)[C@@H]2C2=CC[C@@H]4[C@@]5(C)C/C(=C/c6cccnc6)C(=O)C(C)(C)[C@@H]5CC[C@@]4(C)[C@]2(C)CC3)CC1 | 5.73 µM | 9.4 µM | 7.38 µM | 11.8 µM | 4.05 µM | 7.44 µM | 8.97 µM | 2.83 µM | 3.05 µM | 2.93 µM | 1.57 µM | 2.87 µM | 2.45 µM | 2.12 µM | 1.9 µM | 2.63 µM | 2.78 µM | 1.45 µM | 1.66 µM | 1.54 µM
O=C(Nc1ccccc1)c1cc2c(cc1Cl)Sc1nccn1S2(=O)=O | 18.5 µM | > 100 µM | > 69 µM | 7.53 µM | > 70.9 µM | > 100 µM | > 75.5 µM | > 71.2 µM | > 83.6 µM | > 86.3 µM | – | – | – | – | – | – | – | – | – | –
O=c1c2ccccc2oc2c1ccc1ncccc12 | 59.3 µM | 32.6 µM | > 100 µM | 34.5 µM | 25 µM | > 100 µM | > 100 µM | 44.6 µM | 53.3 µM | 16.1 µM | – | – | – | – | – | – | – | – | – | –
Nn1c(Cc2ccc(Cl)cc2)n[nH]c1=O | > 100 µM | > 100 µM | > 100 µM | > 100 µM | > 100 µM | > 100 µM | > 100 µM | > 100 µM | > 100 µM | > 100 µM | – | – | – | – | – | – | – | – | – | –
Oc1ccc2c(c1)-c1c(c3cc(O)ccc3n1CCN1CCOCC1)CC2 | > 100 µM | > 100 µM | 60.4 µM | 70.5 µM | 60 µM | 41 µM | 68.7 µM | 75.8 µM | 76 µM | > 100 µM | – | – | – | – | – | – | – | – | – | –
C[C@]12CC[C@H]3[C@@H](CCC4=CC(=O)C=C[C@@]43O)[C@@H]1CCC2=O | > 100 µM | – | > 100 µM | > 100 µM | > 100 µM | > 100 µM | > 100 µM | > 100 µM | > 100 µM | > 100 µM | – | – | – | – | – | – | – | – | – | –
C/C(O)=C/c1nc2ccccc2nc1/C=C(/C)O | 66.2 µM | 42.2 µM | 46.5 µM | > 100 µM | 67.4 µM | 81 µM | 45.9 µM | 65.2 µM | 99.3 µM | 79.9 µM | – | – | – | – | – | – | – | – | – | –
CC(C)(C)c1cc(C(O)(C(=O)O)C(=O)O)cc(C(C)(C)C)c1O | > 100 µM | > 100 µM | > 100 µM | > 100 µM | > 100 µM | > 100 µM | > 100 µM | > 100 µM | > 100 µM | > 100 µM | – | – | – | – | – | – | – | – | – | –
CN(Cc1c2ccccc2cc2ccccc12)S(=O)(=O)c1ccc(-c2c3nc(c(-c4ccc(S(=O)(=O)N(C)Cc5c6ccccc6cc6ccccc56)cc4)c4ccc([nH]4)c(-c4ccc(S(=O)(=O)N(C)Cc5c6ccccc6cc6ccccc56)cc4)c4nc(c(-c5ccc(S(=O)(=O)N(C)Cc6c7ccccc7cc7ccccc67)cc5)c5ccc2[nH]5)C=C4)C=C3)cc1 | 83.4 µM | > 100 µM | > 100 µM | > 100 µM | > 100 µM | > 100 µM | > 100 µM | > 100 µM | > 100 µM | > 100 µM | – | – | – | – | – | – | – | – | – | –
O=S(=O)(c1ccccc1)n1c(C(O)c2ccncc2)cc2ccccc21 (configuration not stated) | > 100 µM | 79.7 µM | > 100 µM | > 100 µM | > 100 µM | > 100 µM | > 100 µM | > 100 µM | > 100 µM | > 100 µM | – | – | – | – | – | – | – | – | – | –
[O-][n+]1onc2c3nn(-c4ccccc4)nc3ccc21 | > 100 µM | > 88.7 µM | > 100 µM | > 100 µM | > 100 µM | > 100 µM | > 100 µM | > 100 µM | > 100 µM | > 100 µM | – | – | – | – | – | – | – | – | – | –
CCSc1ncnc2c(C3OC(CO)C(O)C3O)nsc12 (configuration not stated) | > 100 µM | – | > 100 µM | > 100 µM | > 100 µM | > 100 µM | > 100 µM | > 100 µM | > 100 µM | > 100 µM | – | – | – | – | – | – | – | – | – | –
CN(C(=O)C12C3C4(C(=O)O)C1(C(=O)N(C)C(C)(C)C)C1C2(C(=O)O)C3(C(=O)N(C)C(C)(C)C)C14C(=O)N(C)C(C)(C)C)C(C)(C)C (configuration not stated) | > 100 µM | > 100 µM | > 100 µM | > 100 µM | > 100 µM | > 100 µM | > 100 µM | > 100 µM | > 100 µM | > 100 µM | – | – | – | – | – | – | – | – | – | –
CC1(C)C2CCC1(CS(=O)(=O)Nc1ccccc1)C(=O)C2 (configuration not stated) | > 100 µM | > 100 µM | > 100 µM | > 100 µM | > 100 µM | > 100 µM | > 100 µM | > 100 µM | > 100 µM | > 100 µM | – | – | – | – | – | – | – | – | – | –
